Square brackets hold non-standard residues; d marks the D form. Peptide text beside a SMILES is read from it.
Key:
KOR [1] = conditions: after a single injection, result in words; ref [1a]; cited from earlier work
KOR [2] = target: KOR (Mus musculus, UniProt P33534); experiment: competition radioligand-binding assay, KOR, [^3H]U69,593, mouse brain membranes

| Compound | duration of antagonist activity (KOR [1]) | Ki (KOR [2]) |
| --- | --- | --- |
| NC(N)=Nc1ccc2[nH]c3c(c2c1)C[C@@]1(O)[C@H]2Cc4ccc(O)c5c4[C@@]1(CCN2CC1CC1)[C@H]3O5 [GNTI, 5′-guanidinonaltrindole] | lasting for weeks to more than a month | – |
| CC(C)[C@@H](CN1CC[C@@](C)(c2cccc(O)c2)[C@@H](C)C1)NC(=O)[C@H]1Cc2ccc(O)cc2CN1 [JDTic, (3R)-7-hydroxy-N-[(1S)-1-[[(3R,4R)-4-(3-hydroxyphenyl)-3,4-dimethyl-1-piperidinyl]methyl]-2-methylpropyl]-1,2,3,4-tetrahydro-3-isoquinolinecarboxamide] | lasting for weeks to more than a month | – |
| O=C1N[C@@H](Cc2ccccc2)C(=O)N2CCC[C@@H]2C(=O)N[C@@H](Cc2ccccc2)C(=O)N[C@H]1Cc1c[nH]c2ccccc12 [L-Trp isomer, cyclo[Phe-D-Pro-Phe-Trp]] (cyclo(FWF[dP])) | – | 21.2 ± 5.6 nM |
| Oc1ccc2c3c1O[C@H]1c4[nH]c5c(c4C[C@@]4(O)[C@@H](C2)N(CC2CC2)CC[C@]314)C[C@@]1(O)[C@H]2Cc3ccc(O)c4c3[C@@]1(CCN2CC1CC1)[C@H]5O4 [norBNI, norbinaltorphimine] | lasting for weeks to more than a month | – |

Source: article PMC3411353 (Tetrahedron letters, 2010)
